Results on six molecules are retold here after patent US7226761B2, “Manufacture of five-carbon sugars and sugar alcohols” (Danisco Sweeteners Oy, priority 1992, dated 2007).

Series [1] deals with T1, DOG1 (Saccharomyces cerevisiae, UniProt P38774).
T1 construct: expressed in transfected cells; host or cells: S. cerevisiae H1104 (W303-1B) transformed with plasmid B1020 (YEplac195, ADH1 promoter-DOG1-ADH1 terminator) = strain H1514; crude cell extract
T1 sequence (P38774 1-246): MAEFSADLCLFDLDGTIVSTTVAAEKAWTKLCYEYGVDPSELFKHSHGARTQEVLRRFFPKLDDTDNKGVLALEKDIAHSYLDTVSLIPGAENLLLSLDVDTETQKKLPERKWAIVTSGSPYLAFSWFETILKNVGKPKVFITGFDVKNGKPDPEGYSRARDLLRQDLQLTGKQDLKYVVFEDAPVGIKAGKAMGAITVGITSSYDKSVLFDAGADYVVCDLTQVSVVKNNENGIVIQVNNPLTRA
Put plainly: Specificity of DOG1 towards sugar phosphates in yeast cell extracts (phosphate release). Particulars: 20 mM substrate; cell extract of H1514; relative to 2-deoxyglucose-6-P as 100%. It is filed as biochemical, S. cerevisiae. How it is done:
The specificity of DOG1 towards xylulose-5-P, ribulose-5-P, ribose-5-P and 2-deoxyglucose-6-P was determined using 20 mM substrate concentrations. Yeast cell extracts were prepared as described in example 15, except that 50 mM imidazole-HCl, 10 mM MgCl2 buffer, pH 6.0 was used. 10 μl of extract and 210 μl of substrate (20 mM) in the same buffer was incubated for 30 min, 30° C. The reaction was stopped with final 2% of TCA and the phosphate released was measured using ammonium molybdate (15 mM), zinc acetate (100 mM), pH 5.0 as the reagent. The formation of molybdenum blue was measured at 350 nm, and quantified by phosphate standards (Sanz, P. et al., Yeast 10:1195–1202 (1994); Bencini, D. A. et al., Anal. Biochem. 132:254–258 (1983)).

Series [2] addresses T1, DOG1. Particulars: 40 mM substrate; relative to 2-deoxyglucose-6-P as 100%; cited from earlier work.
Series [3] in a line: Xylulose 5-phosphate reductase (XPDH/APDH) activity assay with NADH. It is filed as biochemical. Particulars: 5 mM xylulose 5-phosphate as the substrate. How it is done:
The strain BD 170 [pGTK24(MXD2)] as well as untransformed strain BD 170 was grown overnight on either LB or LB, containing 10% glucose, cell extracts were prepared and the XDH activity measured. The assay conditions for measuring XDH activity were: 30° C., 50 mM Tris-HCI, pH 7.0, 0.2 mM NADH and 10 mM D-xylulose. Changes of absorption at 340 nm were recorded; one unit of activity was defined as the amount of enzyme that catalyzed the reduction of one […] of substrate per minute under the conditions of assay (assuming the differential absorption coefficient NADH/NAD^+ to be equal to […]). The following levels of XDH activity were measured in the strain BD170 [pGTK24(MXD2)] grown on the two media: LB—0.5 U/mgproteins, LB-glucose 0.05–0.15 U/mgprotein. Thus, glucose appeared to repress the activity of the aldolase promoter 3–10 fold. No XDH activity could be detected in the strain BD170 grown on either of the two media.
B. subtilis strain BD170 was transformed with pGTK74(LRXPDH) and pGTK74(BHDH2). The transformants were grown overnight in LB containing 25 mg/liter kanamycin, cell extract were prepared by sonication and the activity of XPDH activity was measured. The conditions for measuring the XPDH activity were similar to those used for measuring the xylitol dehydrogenase activity except that xylulose 5-phosphate was used as the substrate (usually at 5 mM concentration) instead of xylulose. The activities were approximately 0.3 U/mg protein for the XPDH from L. rhamnosus and about 0.5 U/mg protein for B. halodurans enzyme.
Enterococcus avium ATCC 35655 was cultivated at 30° C. in 5 liters of a medium containing: peptone—10 g/l, yeast extract—5 g/l, beef extract 10 g/l, K2HPO4 2 g/l, NaCl—5 g/l, MgSO4—0.02 g/l, MnCl2—0.05 g/l, ammonium citrate 2 g/l, Tween 20—1.1 ml/l, xylitol—20g/l, pH 6.5. […]

The nature of series [4]: Stereospecificity of D-xylulose 5-phosphate reduction, products dephosphorylated and analyzed by HPLC. Type of series: biochemical. Particulars: 10 mM xylulose 5-phosphate, 10 mM NADH, pH 7.0, 37° C. How it is done: The stereospecificity of xylulose-phosphate reduction by the B. halodurans XPDH was verified by the following procedure. The reaction between D-xylulose 5-phosphate and NADH was conducted at 37° C. for several hours under the following conditions: 100 mM Tris-HC buffer, pH 7.0, 10 mM xylulose 5-phosphate, 10 mM NADH, […] the enzyme lysate. The reaction products were dephosphorylated with alkaline phosphatase and analyzed by HPLC. […] It should be noted that among the highest-scoring four homologues of the L. rhamnosus XPDH, the enzyme from B. holodurans is the least homologous. This can be interpreted as an indication that the other three homologues (SEQ ID NO:51, 52 and 53) are most probably also xylitol-phosphate dehydrogenases.
The stereospecificity of D-xylulose 5-phosphate reduction by the E. avium arabitol-phosphate dehydrogenase was verified by the following procedure. The reaction between D-xylulose 5-phosphate and NADH was conducted at 37° C. for several hours under the following conditions: 100 mM Tris-HCl buffer, pH 7.0, 10 mM xylulose 5-phosphate, 10 mM NADH, 1U of the enzyme. The reaction products were dephosphorylated with alkaline phosphatase and analyzed by HPLC. […] There are no other arabitol-phosphate dehydrogenases described in the art.
Both arabitol-phosphate dehydrogenase genes were expressed using the same tools and methods as those used for the expression of xylitol-phosphate dehydrogenases (Example 26). Briefly, the coding regions of the two arabitol-phosphate dehydrogenase genes were amplified using the chromosomal DNA of the microorganism from which the enzyme was isolated and the appropriate PCR primers. In the case of E. avium the primers were oAPDH 51 […] SEQ ID NO: 71) and the anti-sense primer oAPDH 31 […]) SEQ ID NO: 72. For B. halodurans, the sense primer was oBHDH 5 ([…], SEQ ID NO: 73) and the anti-sense primer was oBHDH 3 ([…], SEQ ID NO: 74). […] The stereospecificity of D-xylulose 5-phosphate reduction by the previously unknown enzyme from B. halodurans was determined as described in Example 30.

Series [5] in a line: XDH activity assay in yeast cell extracts, reaction started with D-xylulose. It is filed as biochemical. Particulars: 1 mM D-xylulose; 0.2 mM NADH; pH 7.0; cell extract. The source says: (§1) The xylitol dehydrogenases of P. stipitis, Trichoderma reesei and S. cerevisiae were investigated regarding their specificities towards their sugar substrates. Each of the XDH encoding genes was expressed on multi-copy vectors pAOS67, B1070 and B1163, respectively (see Example 12). Yeast strain H1104 (pAOS67, B1163) and H1052 (B1070) harboring each of the multi-copy vectors, H1160, H1886 and H1748, respectively, were cultivated on SCD medium lacking the appropriate selection marker (histidine, leucine, uracil, respectively). Cells were collected by centrifugation and washed twice with 100 mM sodium phosphate buffer pH 7.0. Cells were resuspended at a concentration of 500 mg/ml wet weight, corresponding approximately to 75 mg/ml dry weight, in the same buffer. 1 ml of this suspension was vortexed with 1 g glass beads (0,5 mm Ø) for 15 min. at 4° C., centrifuged in an Eppendorf centrifuge (13,000 rpm) and the supernatant was assayed. XDH activity was assayed in a medium containing 50 mM Pipes KOH pH 7.0, 0.2 mM NADH. The reaction was started by addition of D-xylulose or D-ribulose at a final concentration of 1 mM. The activity was measured by following the adsorption of NADH at 340 nm.

The nature of series [6]: XDH activity assay in yeast cell extracts, reaction started with D-ribulose. Type of series: biochemical. Particulars: 1 mM D-ribulose; 0.2 mM NADH; pH 7.0; cell extract.
Excerpt: as §1

Take `O=C[C@H](O)[C@H](O)[C@H](O)COP(=O)(O)O` [ribose-5-P, ribose-5-phosphate]: on DOG1 [1], the “Relative activity (20 mM)” value worked out at 52%. Moreover, the “Activity reported in the literature (40 mM)” value (“Activity reported” for short) at DOG1 [2] was 42%.
For `O=CC[C@@H](O)[C@H](O)[C@H](O)COP(=O)(O)O` [2-deoxyglucose-6-P, 2-deoxyglucose-6-phosphate], the “Relative activity (20 mM)” value at DOG1 [1] was 100%. Besides, at DOG1 [2], the “Activity reported” value is given as 100%.
As for `O=C(CO)[C@H](O)[C@H](O)COP(=O)(O)O` [ribulose-5-P, ribulose-5-phosphate], at DOG1 [1], the “Relative activity (20 mM)” value was determined as 6%. The “Activity reported” value on DOG1 [2] is on record as 7%.

B1: arabitol-phosphate dehydrogenase: arabitol-phosphate dehydrogenase purified from Enterococcus avium ATCC 35655, SEQ ID NO:69 (protein)
chain: MSKTMKGVSKQAPGYDQMAFIDLSVPEATDDKVLIKVAYTGICGSDIHTFKGEYKNPTTPVVLGHEFSGQVVEVGANVTKVKVGDRVTSETTFYVCGECDYCKEKQYNLCPHRKGIGTQQNGSMANYVLAREESIHLLPDHLSYEGAAMSEPLACCVHAMYQKSHLELKDTIIIMGPGPIGLYLLQIAKEIGAFVIMTGITKDAHRLALAKKLGADVIVDTMKEDLAKVVNEITDGYGVDKVYDASGAVPAVNASLPLIRKQGQFIQVGLFANKMVDLDTESIIQREIEYIGSRSQNPYDWPIAIHLLAKGAINIDEMITKKYPLTEWREAFDKVMEGNEIKVMIESNPEEF
modifications: Bacillus halodurans
On to B1, for which the “specific activity of purified enzyme” value in series [3] is “about 12 U/mgprotein”. Besides, the “products found in the reaction mixture / stereospecificity” value in series [4] is “Only arabitol and xylulose (corresponding to the unreacted xylulose 5-phosphate) were found”.

B2: Pichia stipitis XDH: xylitol dehydrogenase encoded by the XYL2 gene from Pichia stipitis, expressed in yeast on pAOS67 (protein, UniProt P22144 1-363, looked up)
D-xylulose reductase: MTANPSLVLNKIDDISFETYDAPEISEPTDVLVQVKKTGICGSDIHFYAHGRIGNFVLTKPMVLGHESAGTVVQVGKGVTSLKVGDNVAIEPGIPSRFSDEYKSGHYNLCPHMAFAATPNSKEGEPNPPGTLCKYFKSPEDFLVKLPDHVSLELGALVEPLSVGVHASKLGSVAFGDYVAVFGAGPVGLLAAAVAKTFGAKGVIVVDIFDNKLKMAKDIGAATHTFNSKTGGSEELIKAFGGNVPNVVLECTGAEPCIKLGVDAIAPGGRFVQVGNAAGPVSFPITVFAMKELTLFGSFRYGFNDYKTAVGIFDTNYQNGRENAPIDFEQLITHRYKFKDAIEAYDLVRAGKGAVKCLIDGPE
In the case of B2, the “specific activity towards D-xylulose, normalized to D-xylulose activity being 100%” value in series [5] is on record as 100%. Also, in series [6], the “specific activity towards D-ribulose, normalized to D-xylulose activity being 100%” value was determined as 25%.

B3: Saccharomyces cerevisiae XDH: enzyme having xylitol dehydrogenase activity encoded by S. cerevisiae ORF YLR070c, expressed on B1163 (protein, UniProt Q07993 1-356, looked up)
D-xylulose reductase: MTDLTTQEAIVLERPGKITLTNVSIPKISDPNEVIIQIKATGICGSDIHYYTHGRIANYVVESPMVLGHESSGIVALIGENVKTLKVGDRVALEPGIPDRFSPEMKEGRYNLDPNLKFAATPPFDGTLTKYYKTMKDFVYKLPDDVSFEEGALIEPLSVAIHANKLAKIKFGARCVVFGAGPIGLLAGKVASVFGAADVVFVDLLENKLETARQFGATHIVNSGDLPHGVTVDSVIKKAIGKKGADVVFECSGAEPCVRAGIEVCKAGGTIVQVGMGQEEIQFPISIIPTKELTFQGCFRYCQGDYSDSIELVSSRKLSLKPFITHRYSFKDAVEAFEETSHHPLNNIKTIIEGPE
Regarding B3, in series [5], the “specific activity towards D-xylulose, normalized to D-xylulose activity being 100%” value was determined as 100%. In addition, the “specific activity towards D-ribulose, normalized to D-xylulose activity being 100%” value in series [6] came to 10%.
